Test: Solubility of retinoic acid in the liquid lipid
Assay type: physicochemical
Protocol: FIG. 2 is the result of the solubility in oil according to the binding of an amine compound and retinoid.
As shown in the Table 2, the maximum concentration of the retinoic acid soluble in the liquid lipid was 0.1% of the weight of the liquid lipid, and when added more the above, the retinoic acid was not dissolved, making it impossible to synthesize capsules (Comparative examples 1, 2, 3). On the other hand, it was determined that the solubility of retinoic acid was increased over 10% of the weight of the liquid lipid, when the amine compound at the same mole concentration as retinoic acid was added during dissolving retinoic acid in the liquid lipid (See Table 2). Through this, the dry weight of the retinoid in the final capsule after washing could be increased 100 times from conventional 0.03% to 3%.

Which “solubility of retinoic acid in the liquid lipid” value (amine compound added at the same mole concentration as retinoic acid) does the source give for `CC1=C(/C=C/C(C)=C/C=C/C(C)=C/C(=O)O)C(C)(C)CCC1` [retinoic acid] here?
Its value is “over 10 % of the weight of the liquid lipid”.

What about the “maximum concentration of the retinoic acid soluble in the liquid lipid” value (without amine compound, caprylic/capryl triglyceride) of the same compound?
The value was 0.1 % of the weight of the liquid lipid.

Source: patent publication US12390402B2, “High-content and sustained-release retinoid capsule, and composition for reducing wrinkles, containing same” (LG HOUSEHOLD & HEALTH CARE LTD., priority 2018, dated 2025)
